Columns and labels:
Test in all cases: relative viability vs DMSO control (72 h) (fraction); higher = more viable cells
SK-ES-1 = test system: SK-ES-1
Method in brief: (§1)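 Serially diluted compound, 2.5 µl from source plates spanning 10 mM to 0.0002 mM, was added 24 h after sarcoma cell lines were seeded in 384-well plates at densities targeting 80–90% confluence. Plates then sat 72 h at 37 °C, 5% CO2, with 0.1% DMSO vehicle and a 5 µM positive control. Relative viability came from ATPLite as percent growth, averaged over up to triplicate wells, and was rescaled with 1 as full and 0 as none.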

MES-SA = test system: MES-SA
Method in brief: as §1

SYO-1 = test system: SYO-1
Method in brief: as §1

KHOS-240S = test system: KHOS-240S
Method in brief: as §1

SW684 = test system: SW684
Method in brief: as §1

HS729 = test system: HS729
Method in brief: as §1

Cc1cccc(-c2nn3c(c2-c2ccnc4ccc(C(N)=O)cc24)CCC3)n1 [Galunisertib]
relative viability
Conditions	HS729	KHOS-240S	MES-SA	SK-ES-1	SW684	SYO-1
0.00017 µM	0.993	1.06	0.925	1.02	1.08	0.972
0.00051 µM	0.933	1.07	0.922	1.03	1.09	0.942
0.00152 µM	0.948	1.06	0.916	0.998	1.08	0.913
0.00457 µM	0.897	1.06	0.897	0.978	1.13	0.898
0.01372 µM	0.901	1.04	0.911	1.06	1.09	0.867
0.04115 µM	0.892	1.01	0.91	1.02	1.11	0.824
0.1235 µM	0.898	0.996	0.9002	0.946	1.09	0.783
0.3704 µM	0.836	0.971	0.891	0.996	1.08	0.752
1.111 µM	0.794	0.987	0.888	0.974	1.05	0.738
3.333 µM	0.756	0.966	0.863	0.96	1.08	0.685
10 µM	0.749	0.929	0.873	0.959	1.09	0.671

Source: the supplement of paper PMC10883282
